Data: US20210369812A1, “OSTEOINDUCTIVE PEPTIDES, COMPOSITIONS, IMPLANTS, AND METHODS OF USE” (The Board of Regents of the University of Oklahoma, priority 2018, published 2021)
“Also recorded” adds a separate entry of the source.

What was measured:
[1] = test system: human mesenchymal stem cells (hMSCs); assay: Live cell binding through immunofluorescence; type: cell-based; conditions: 10^12 phages/ml
Procedure: Human mesenchymal stem cells (hMSCs) were grown to roughly 60% plate coverage in a 48-well tissue culture plate according to the company Lonza's culturing protocols. […] The hMSCs were then blocked with 0.5% BSA (dissolved in cell media) for 1 hour. The cell media for the hMSCs was then replaced with 1 ml of new cell media having of concentration of 10^12 phages/ml. Next, the plates were washed once with 400 μl of phosphate buffered saline (PBS) at a pH of 7.4. The hMSCs were then incubated with Anti-M13 Bacteriophage Coat Protein g8p antibody [RL-ph2] (ab9225) at a 1:1000 dilution in cell media (200 μl per well). The wells were then washed again with PBS (400 μl per wash). Next, the hMSCs were incubated with the secondary antibody, Goat-anti mouse AF-488 (Abcam) for 1 hour (1 ug/ml final concentration of antibody in media). The wells were then washed again with PBS (400 μl per wash). A Hoechst nuclear stain was used to stain the nuclei (PureBlu™ Hoechst 33342 Nuclear Staining Dye #1351304 from BioRad) according to the company's protocol. Cell Mask™ Orange Plasma Membrane Stain was used to stain membranes (CellMask™ Orange Plasma Membrane Stain Catalog number: C10045 from Thermo Fisher Scientific) according to the company's protocol. The phages binding to the cells were then imaged on a Nikon Eclipse Ti fluorescent microscope.

[2] = test system: hMSCs; assay: qPCR of osteoblast marker genes; type: cell-based, human; conditions: 26 days on phage films; normalized to GAPDH; relative to negative control (basal media)
Procedure: Gene expression was normalized to the reference gene, GAPDH. All fold changes are relative to a negative control (basal media with no peptides or phage) which represents the baseline at zero-fold change. […] All data represent the mean±standard deviation. (*P≤0.05, **P≤0.01, ***P≤0.001).
hMSCs were seeded (1×10^3 cells per culture plate) on to phage films as well as relevant control plates. The cells were then cultured for 26 days. The cells then were processed with a Power SYBR™ Green Cells-to-CT™ Kit. The number of cells was adjusted to be 5×10^3 cells per lysis reaction. All other parameters were kept the same as the manufacturer's protocol for this kit. The gene expression of osteopontin, osteocalcin, and collagen type 1A were measured as a fold change normalized to the reference gene GAPDH and a negative control (basal media+ cells but no phage) such that the baseline at zero-fold change represents the negative control. For temperature cycling and measuring CT values, a MiniOpticon Real Time PCR System was used.

[3] = test system: hMSCs; assay: Immunofluorescence of osteoblast marker proteins; type: cell-based, human; conditions: hMSCs on phage films, 26 days, basal media
Source text: OPN was detected with the primary antibody for OPN (RbpAB to osteopontin ab8448 from Abcam). The secondary antibody used was Goat Anti-Rabbit IgG H&L (Alexa Fluor 555) (ab150078) from Abcam (red). OCN was detected with the primary antibody for OCN [OC4-30] (ab13418) from Abcam). The secondary antibody used was Goat Anti-Mouse IgG H&L (Dylight 650) preadsorbed from abcam ab96882 (red). COL was detected using a primary antibody for COL (RbpAb to collagen 1 ab34710). The secondary antibody used was Goat Anti-Rabbit IgG H&L (Alexa Fluor 555) (ab150078) from abcam (red). Cell nuclei were stained by DAPI (blue) for all samples, and actin was stained by phalloidin (green).
This procedure can be scaled for any size well plates or petri dish, but the volumes included are for 96-well tissue culture plates. […]
After culturing hMSCs on phage films for 26 days, the cells were fixed with 4% paraformaldehyde (10 min) and permeabilized with 0.2% Triton X-100 (2 min) at room temperature. […] The osteogenic protein markers osteopontin (OPN), osteocalcin (OCN), and collagen type 1A (COL) were detected through immunofluorescence. OPN was detected with the primary antibody for OPN (RbpAB to osteopontin ab8448 from Abcam). […] OCN was detected with the primary antibody for OCN [OC4-30] […] COL was detected using a primary antibody for COL (RbpAb to collagen 1 ab34710). […]

Sequence | Binding of peptide-bearing phages to live hMSCs [1] | Osteopontin gene expression, fold change [2] | Osteocalcin protein expression (immunofluorescence) [3] | Osteopontin protein expression (immunofluorescence) [3]
SGTQDSMVGWNK (Completely synthesized in the lab - Ph.D.-12 Phage Display Peptide Library Kit (New England Biolabs)) | bound to what appeared to be the same location as the outer membrane; also recorded: demonstrated an ability to bind to the outer membrane | greater osteopontin production than the wild type, but not greater than the Lonza osteogenic media; also recorded: statistically significant advantage over the wild type phage films | – | –
VHVPLHRGAVSA (Completely synthesized in the lab - Ph.D.-12 Phage Display Peptide Library Kit (New England Biolabs)) | bound to what appeared to be the same location as the outer membrane; also recorded: demonstrated an ability to bind to the outer membrane | greater osteopontin production than the Lonza osteogenic media; also recorded: statistically significant advantage over the wild type phage films; also recorded: statistically significant advantage over the positive control | slightly greater osteocalcin production | qualitatively higher level of osteopontin protein expression than the other groups and a higher expression than the positive control
